Assay results: patent publication US9695191B2, “Conformationally constrained, fully synthetic macrocyclic compounds” (POLYPHOR AG, priority 2009, dated 2017)

How the values were obtained:
[1] = human, 10 μM
Procedure: (§2) Example compounds were dissolved in DMSO/H2O 90:10 to a final concentration of 10 mM for plasma stability determination and metabolic stability determination.
(§3) Human plasma (3-5 donors, Blutspendedienst SRK, Basel) and CD-1 mouse plasma (mixed gender pool>50 animals, Innovative Research, CA, USA) are both sodium citrate stabilized. The assay is performed in triplicates at 10 μM compound concentration and 37° C. Samples are taken at 0, 15, 60, and 240 minutes and stopped by precipitation with 2 volumes of acetonitrile. The supernatant is collected, evaporated and reconstituted in a 5% acetonitrile solution to be analyzed by HPLC/MS/MS. The resulting peak area counts are expressed in percent of the 0 value and used to determine the endpoint stability in % and the half life T½ in minutes. In order to monitor assay integrity the degradation of propantheline is assayed with every experimental set

[2] = Metabolic stability, CD-1 mouse microsomes; assay type: in vitro ADME; conditions: 37° C.; for Metabolic Stability 60 min mouse: % of the initial 0 minutes value at 60 min, 10 μM
Procedure: (§1) Microsomes from a human 50 donor mixed gender pool and 1:1 mixtures of microsomes from CD-1 mouse single-gender pools are purchased from Celsis (Belgium). The enzymatic reaction is performed in a buffer containing an NADPH regeneration system and microsomes with the following end concentrations: 100 mM potassium phosphate buffer (all from Sigma), 1 mg/mL glucose-6-phosphate, 1 mg/mL β-nicotinamide adenine dinucleotide phosphate (NADP), 0.65 mg/mL magnesium chloride, 0.8 units/mL of glucose-6-phosphate dehydrogenase (prediluted with 5 mM citrate buffer), 10 μM compound and 1 mg/ml microsomal protein. Compounds are incubated at 37° C. in duplicates and samples are taken after 0, 20 and 60 minutes. After acetonitrile precipitation (2 volumes) and HPLC/MS/MS analysis metabolic turnover is expressed in % of the initial 0 minutes value and half life T½ (min) is calculated. Verapamil for human and propranolol for mouse are used as reference and are assayed with every experimental set. • F. P. Guengerich, Analysis and Characterization of Enzymes; in: Principles and Methods of Toxicology; A. W. Hayes (Ed.) Raven Press: New York, 1989, 777-813. • R. Singh et al., In vitro metabolism of a potent HIV-protease inhibitor (141W94) using rat, monkey and human liver S9, Rapid Commun. Mass Spectrom. 1996, 10, 1019-1026. 5. Results

[3] = both, CD-1, mouse, 10 μM
Procedure: as §2, §3

[4] = Metabolic stability, human microsomes; assay type: in vitro ADME; conditions: 37° C.; for Metabolic Stability 60 min hum: % of the initial 0 minutes value at 60 min, 10 μM
Procedure: as §1

[5] = 10 μM compound, 1 mg/ml microsomal protein, sampling up to 60 min

Row | Compound | Plasma Stability 240 min hum [1] | Metabolic Stability 60 min mouse [2] | Plasma Stability 240 min mouse [3] | Metabolic Stability 60 min hum [4] | Metabolic Stability T ½ [min] mouse [2, 5] | Metabolic Stability T ½ [min] hum [4, 5]
1 | CCCCC(=O)N[C@@H]1C[C@H]2COc3ccc(F)cc3C(=O)N(C)[C@H](C(=O)N(C)CCN(C)C)CCC(=O)N(C)CC(=O)N2C1 [Ex. 78, (2R,11S,19aS)-N-[2-(dimethylamino)ethyl]-15-fluoro-N,7,12-trimethyl-5,8,13-trioxo-2-(pentanoylamino)-2,3,6,7,8,9,10,11,12,13,19,19a-dodecahydro-1H,5H-pyrrolo[2,1-c][1,4,7,12]benzoxatriazacyclopentadecine-11-carboxamide] | 65% | 100% | 100% | 78% |  | 
2 | CN1CC(=O)N2C[C@@H](N)C[C@H]2COc2ccc(F)cc2C(=O)N(C)[C@@H](C(=O)NCc2ccc3ccccc3c2)CCC1=O [Ex. 91, (2S,11R,19aS)-2-amino-15-fluoro-7,12-dimethyl-N-(2-naphthylmethyl)-5,8,13-trioxo-2,3,6,7,8,9,10,11,12,13,19,19a-dodecahydro-1H,5H-pyrrolo[2,1-c][1,4,7,12] benzoxatriazacyclopentadecine-11-carboxamide] | 96% | 95% | 88% | 91% |  | 
3 | CNC(=O)[C@H]1CCC(=O)N(C)CC(=O)N2C[C@@H](NC(=O)Cc3ccc4ccccc4c3)C[C@H]2COc2ccc(F)cc2C(=O)N1C [Ex. 93, (2S,11R,19aS)-15-fluoro-N,7,12-trimethyl-2-{[2-(2-naphthyl)acetyl]amino}-5,8,13-trioxo-2,3,6,7,8,9,10,11,12,13,19,19a-dodecahydro-1H,5H-pyrrolo[2,1-c][1,4,7,12] benzoxatriazacyclopentadecine-11-carboxamide] | 100% | 15% | 100% | 1% |  | 
4 | CN1CC(=O)N2C[C@@H](NC(=O)CCC(=O)O)C[C@H]2COc2ccc(F)cc2C(=O)N(C)[C@@H](C(=O)NCc2ccc3ccccc3c2)CCC1=O [Ex. 95, 4-[((2S,11R,19aS)-15-fluoro-7,12-dimethyl-11-{[(2-naphthylmethyl)amino]carbonyl}-5,8,13-trioxo-2,3,6,7,8,9,10,11,12,13,19,19a-dodecahydro-1H,5H-pyrrolo [2,1-c][1,4,7,12]benzoxatriazacyclopentadecin-2-yl)amino]-4-oxobutanoic acid] | 100% | 94% | 93% | 76% | 60 min | 60 min
5 | CN1CC(=O)N2C[C@@H](NC(=O)CN3CCCC3)C[C@H]2COc2ccc(F)cc2C(=O)N(C)[C@@H](C(=O)N2CCCC2)CCC1=O [Ex. 98, N-[(2S,11R,19aS)-15-fluoro-7,12-dimethyl-5,8,13-trioxo-11-(1-pyrrolidinylcarbonyl)-2,3,6,7,8,9,10,11,12,13,19,19a-dodecahydro-1H,5H-pyrrolo[2,1-c][1,4,7,12]benzoxatriazacyclopentadecin-2-yl]-2-(1-pyrrolidinyl)acetamide] | 100% | 100% | 78% | 97% |  | 
6 | CCCCCCCCCC(=O)N[C@H]1C[C@H]2COc3ccc(F)cc3C(=O)N(C)[C@H](C(=O)NCc3ccc4ccccc4c3)CCC(=O)N(C)CC(=O)N2C1 [Ex. 102, (2S,11S,19aS)-2-(decanoylamino)-15-fluoro-7,12-dimethyl-N-(2-naphthylmethyl)-5,8,13-trioxo-2,3,6,7,8,9,10,11,12,13,19,19a-dodecahydro-1H,5H-pyrrolo[2,1-c][1,4,7,12] benzoxatriazacyclopentadecine-11-carboxamide] | 65% | 39% | 75% | 4% |  | 
7 | CN(C)CCNC(=O)[C@H]1CCC(=O)N(C)CC(=O)N2CCN(C(=O)Cc3ccc4ccccc4c3)C[C@@H]2COc2ccc(F)cc2C(=O)N1C [Ex. 138, (12R,20aR)-N-[2-(dimethylamino)ethyl]-16-fluoro-8,13-dimethyl-2-[2-(2-naphthyl)acetyl]-6,9,14-trioxo-1,2,3,4,7,8,9,10,11,12,13,14,20,20a-tetradecahydro-6H-pyrazino[2,1-c][1,4,7,12] benzoxatriazacyclopentadecine-12-carboxamide] | 89% | 99% | 78% | 62% |  | 
8 | CN1CCC[C@H](NC(=O)OCc2ccccc2)C(=O)N2C[C@@H](NC(=O)Cc3ccc4ccccc4c3)C[C@H]2COc2cccc(c2)C1=O [Ex. 184, benzyl N-[(4S,6S,10S)-14-methyl-6-{[2-(2-naphthyl)acetyl]amino}-9,15-dioxo-2-oxa-8,14-diazatricyclo[14.3.1.0^4,8]icosa-1(20),16,18-trien-10-yl]carbamate] | 66% | 0% | 58% | 0% |  | 
9 | CN1C[C@H](NC(=O)OCc2ccccc2)C(=O)N(C)CC(=O)N2C[C@@H](NC(=O)Cc3c[nH]c4ccccc34)C[C@H]2COc2cccc(c2)C1=O [Ex. 200, benzyl N-[(4S,6S,13S)-6-{[2-(1H-indol-3-yl)acetyl]amino}-11,15-dimethyl-9,12,16-trioxo-2-oxa-8,11,15-triazatricyclo[15.3.1.0^4,8]henicosa-1(21),17,19-trien-13-yl]carbamate] | 91% | 26% | 100% | 12% |  | 
10 | CC(=O)N[C@H]1CN(C)C(=O)c2cccc(c2)OC[C@@H]2C[C@H](NC(=O)CN(C)C)CN2C(=O)CN(C)C1=O [Ex. 208, N-[(4S,6S,13S)-13-(acetylamino)-11,15-dimethyl-9,12,16-trioxo-2-oxa-8,11,15-triazatricyclo[15.3.1.0^4,8]henicosa-1(21),17,19-trien-6-yl]-2-(dimethylamino)acetamide] | 98% | 100% | 90% | 84% |  | 
11 | CN(C)CC(=O)N[C@@H]1C[C@H]2COc3cccc(c3)C(=O)N(C)C[C@H](NC(=O)Cc3ccc4ccccc4c3)C(=O)N(C)CC(=O)N2C1 [Ex. 230, 2-(dimethylamino)-N-[(4S,6R,13S)-11,15-dimethyl-13-{[2-(2-naphthyl)acetyl]amino}-9,12,16-trioxo-2-oxa-8,11,15-triazatricyclo[15.3.1.0^4,8]henicosa-1(21),17,19-trien-6-yl]acetamide] | 100% | 90% | 95% | 61% |  | 
12 | CN1CC(=O)N2C[C@H](NC(=O)CCc3ccncc3)C[C@H]2COc2ccc(cc2)C(=O)N(C)[C@H](C(=O)NCc2ccc3ccccc3c2)CCC1=O [Ex. 260, (4S,6R,15S)-11,16-dimethyl-N-(2-naphthylmethyl)-9,12,17-trioxo-6-{[3-(4-pyridinyl)propanoyl]amino}-2-oxa-8,11,16-triazatricyclo[16.2.2.0^4,8]docosa-1(20),18,21-triene-15-carboxamide] | 100% | 69% | 100% | 19% |  | 
13 | CCN(CC)[C@@H]1C[C@H]2COc3ccc(cc3)C(=O)N(C)[C@H](C(=O)NCc3ccc4ccccc4c3)CCC(=O)N(C)CC(=O)N2C1 [Ex. 262, (4S,6R,15S)-6-(diethylamino)-11,16-dimethyl-N-(2-naphthylmethyl)-9,12,17-trioxo-2-oxa-8,11,16-triazatricyclo [16.2.2.0^4,8]docosa-1(20),18,21-triene-15-carboxamide] | 100% | 4% | 93% | 0% |  | 
